Experimental data taken from US7629317B2, “Control of growth and repair of gastro-intestinal tissues by gastrokines and inhibitors” (The University of Chicago, priority 2001, dated 2009).
“Also recorded” adds a separate entry of the source. Read-outs that look alike come from different tables or passages of the source.

B1: rhAMP-18: recombinant human AMP-18 with N-terminal His6-tag replacing the signal peptide, expressed in E. coli (SEQ ID NO: 27) (protein)
chain: MRGSHHHHHHGSNYNIDVNDDNNNAGSGQQSVSVNNEHNVANVDNNNGWDSWNSIWDYGNGFAATRLFQKKTCIVHKMKKEVMPSIQSLDALVKEKKLQGKGPGGPPPKGLMYSVNPNKVDDLSKFGKNIANMCRGIPTYMAEEMQEASLFFYSGTCYTTSVLWIVDISFCGDTVEN
modifications: N-terminal His6 tag

Tests used:
[1] = tested on: SK-GT5 cells; experiment: Growth of SK-GT5 gastroesophageal adenocarcinoma cells; format: cell-based; conditions: concentration-dependent
Method: (§1) To characterize the capacity of gastric and intestinal cells to respond to AMP-18, AGS gastric adenocarcinoma cells, HAE human gastric antrum mucosa primary cultures transformed with SV40 large T antigen, rat diploid small intestinal epithelial cells of the IEC-6 (FIG. 15) and IEC-18 lines, NCI N-87 gastric carcinoma cells, and SK-GT5 gastroesophageal adenocarcinoma cells were studied; human WI-38 fibroblasts and HeLa cells served as non-GI control cell lines. Mitogenesis was assayed by performing cell counts 3 to 4 days after exposing cells to the agent of interest, trypsinizing the culture to prepare single cells, and confirming this while counting them in a hemocytometer.

[2] = tested on: HAE cells; experiment: Growth of human antrum epithelial (HAE) cells (cell count 4 days later); format: cell-based; conditions: peptide 77-97 8 μg/ml, EGF 50 ng/ml, 4 days
Method: (§2) To measure growth (left panel), HAE cells were plated in 60-mm dishes. Peptide 77-97 (8 μg/ml), or EGF (50 ng/ml), or both were added to the medium and the number of cells counted 4 days later. […] Values are means±SE for 3 cultures. To measure migration (right panel), cells were grown in 60-mm dishes to prepare a confluent monolayer. The medium was aspirated and replaced with fresh medium containing 0.01% calf serum (CS). The monolayer was mechanically wounded by scraping with a razor blade. Detached cells were removed by aspirating medium, and rinsing the remaining cells twice with fresh medium containing 0.01% CS. Fresh medium (5 ml) containing CS (0.01%) and insulin (100 U/L) was added to wounded cultures. Either peptide 77-97 (8 μg/ml), EGF (50 ng/ml), or both were added to duplicate cultures. Migration was assessed at 24, 48 and 72 hr after wounding by measuring the distance (in mm) that cells had migrated from the wound edge using a microscope eyepiece reticle (10-mm long; 0.1-mm markings). Migrating cells at 12 randomly chosen sites along a 0.25-mm stretch of the wound edge were measured at 40-fold magnification. Migration at 2 different sites was measured for each of 2 separate wounds made in each culture. Values are the mean distance cells moved into the denuded area from the edge of 4 different wounds in 2 cultures±SE.
as §1

[3] = tested on: NCI N-87 cells; experiment: Growth of NCI N-87 gastric carcinoma cells; format: cell-based; conditions: concentration-dependent
Method: as §1

[4] = tested on: HAE cells; experiment: Wound restitution (migration) of scrape-wounded HAE cell monolayers; format: cell-based, human; conditions: peptide 8 μg/ml, EGF 50 ng/ml; 24-72 hr
Method: as §2
Confluent monolayer cultures were mechanically wounded by scraping with a razor blade, and the distance that cells migrated from the wound edge was measured using a microscope eyepiece reticle.

[5] = tested on: AGS cells; experiment: Growth of gastric epithelial AGS cells (cell count four days later); format: cell-based, human; conditions: peptide 77-97 8 μg/ml, EGF 50 ng/ml at saturating doses
Method: as §1

[6] = tested on: MDCK cells; experiment: Transepithelial electrical resistance (TER) of MDCK cell monolayers; format: cell-based; conditions: monochloramine 0.1 mM, 90 min; EGF 50 ng/ml
Method: Monolayer cultures of MDCK cells were grown on permeable polycarbonate filters (0.4-μm pore size) (Transell) in DMEM containing FBS (2%) without (control) or with peptide 77-97 (8 μg/ml) for 8 days. TER was measured 24 hr after the cells were plated, and at specified times thereafter using an epithelial volt-ohm meter (EVOM, Millipore). Following each measurement, medium containing FBS without or with peptide was changed (0, 48, and 144 hr), and additional peptide 77-97 (8 μg/ml) was added at 30 and 72 hr. At 72 hr, TER in cultures that received peptide 77-97 was twice as high as in control cultures. Values are means for 3 cultures; variance is <10% of the mean. TER was measured from 3 different areas on the filter.
(§3) Panel A: When a stable TER was reached (330 Ω·cm^2) in MDCK cell monolayers the medium was changed to DMEM containing FBS (0.2%), and either peptide 77-97 (8 μg/ml) or EGF (50 ng/ml). After 18 hr, peptide 77-97 or EGF were added to the specified wells. One hour later monochloramine (0.1 mM), like the other agents, was added to the apical and basal compartments of the Transwell. […] Panels B, C: Caco2/bbe (C2) subclone monolayers were grown on collagen-coated polycarbonate filters until a stable TER was reached (225 Ω·cm^2). Spent medium was replaced with fresh medium containing FBS (0.1%) alone or with peptide 77-97 (8 μg/ml). After 18 hr, monochloramine (0.3 mM, B) or indomethacin (0.1 mM, C) was added to both compartments of the Transwell. At time 0, cultures received either vehicle (control), vehicle plus oxidant or indomethacin, or peptide 77-97 and oxidant or indomethacin. TER of injured cultures treated with vehicle decreased by ˜35% at 90 min, whereas peptide-treated cultures declined ˜10%.

[7] = tested on: occludin, ZO-1, ZO-2, claudin-5, E-cadherin, JAM; experiment: Accumulation of tight and adherens junction proteins in C2 cells (immunoblot of insoluble fraction, confocal microscopy); format: cell-based, human; conditions: 8 hr
Method: To find out how the peptide exerts its cytoprotective effect, C2 cell monolayers were treated with AMP peptide, and oxidant injury was induced with monochloramine 18 hours later. Changes in the levels of specific tight junction (TJ) proteins were checked. Cells were lysed, and proteins of the insoluble/particulate fraction were studied by immunoblotting. […] This observation represents the first evidence that AMP peptide enhances accumulation of specific TJ proteins in colonic epithelial cells. […] To carry out this experiment, C2 cells were exposed to AMP peptide for different periods of time, the NP-40-insoluble fraction was obtained, Western blots were prepared, and the amount of each immunoreactive protein was quantified. A 65% increase in immunoreactivity of each protein compared to control was detected for occludin after 2 hr, and for ZO-1 at 8 hr. Hsc73, which is constitutively expressed in these cells, was not altered by exposure to AMP peptide for up to 18 hr.
Confluent monolayers of C2 cells were treated with AMP peptide or vehicle for 8 hr. Cells were then collected, proteins in the NP-40-insoluble fraction were separated by SDS-PAGE, immunoblots were prepared, and the relative amounts of immunoreactive proteins were compared by densitometric analysis. […] These changes appear relatively specific for occludin, ZO-1, ZO-2, claudin-5, E-cadherin, and JAM because they were not observed for several other proteins localized in the TJ (claudin-1, claudin-2), adherens junction (β-catenin), plasma membrane (Na-K-2Cl cotransporter, α or β subunit of Na-K-ATPase), or cytosol (Rho A, hsc73).
To better understand the mechanism(s) by which AMP peptide enhances accumulation of TJ-associated proteins, experiments were performed to determine whether the peptide exerted its effect at the apical or basolateral surface of C2 cells. Monolayers of C2 cells were grown on Transwell filters, AMP peptide (8:g/ml) was added to the apical or basolateral compartment of the Transwell, and cells were harvested 8 hr later. The NP-40-insoluble fraction was obtained, its proteins separated, and immunoblots were prepared.

[8] = tested on: IEC-18 cells; experiment: Growth of confluent cultures of IEC-18 cells (cell count); format: cell-based, rat; conditions: for EC50: read-out: half-maximal concentration (K1/2) for growth stimulation
Method: Confluent cultures of IEC-18 cells were prepared. One day later, medium was aspirated and replaced with 5 ml of DMEM containing CS (0.5%) and insulin, without (control) or with mitogenic peptide 58-99 (8 μg/ml). Sister plates receiving 1 ml medium and different amounts of peptide 67-85 were incubated at 1 hr at 38° C. on a CO2 incubator, and then an additional 4 ml of medium was added to each dish. Peptide 58-99 was added to 2 of the 4-sister plates at each concentration of peptide 67-85, and the number of cells was counted. […] Stimulation of cell growth by mitogenic peptide 58-99 was completely abolished by preincubation of cells with 0.25 μg/ml of peptide 67-85. […] Values for the number of cells per culture are shown relative to multiplication of cells exposed to the vehicle during the same period.
Urea (6 M) was employed to release proteins from the insoluble fraction solubilize rhAMP-18 containing the His6-tag (SEQ ID NO: 16), and make it available to bind to the Ni^2+-charged resin from which it was subsequently eluted with a gradient of imidazole (0 to 200 mM). The amount of eluted rhAMP-18 was measured using the BCA assay, and the appearance of a single band at the predicted size of 19-20 kD was confirmed by SDS-PAGE followed by immunoblotting. To determine if eluted rhAMP-18 renatured to assume a structure that was mitogenic, aliquots of the eluate (following removal of urea and imidazole by dialysis) were added to cultures of IEC-18 cells and the number of cells was counted 4 days later. […] AMP peptide 77-97 refers to the mature protein; same as peptide 97-117 of human precursor protein: Table 1. These observations indicate that biologically active recombinant human AMP-18 that can be utilized in diverse clinical situations is available. The mitogenic potency of rhAMP-18 is in the nanomolar range which would be expected for a native gastric cell growth factor that participates in the maintenance and repair of the stomach in vivo.
as §1

[9] = tested on: IEC-6 cells; experiment: Growth of intestinal epithelial IEC-6 cells (cell count); format: cell-based, rat
Method: IEC-6 cells were grown in 60-mm dishes. […] Values are means±SE for 3 cultures.
as §1

[10] = tested on: Caco2/bbe (C2) cells; experiment: Transepithelial electrical resistance (TER) of Caco2/bbe (C2) cell monolayers after injury; format: cell-based, human; conditions: monochloramine 0.3 mM, 45 min; rhAMP-18 100 nanomolar or peptide 3.7 micromolar pre-treatment; oxidant alone ~35%
Method: as §3
C2 cell monolayers were grown in DMEM containing FBS (5%) and transferrin (10 μg/ml) on collagen-coated polycarbonate filters until a stable TER was reached (225 Ωcm^2). At time 0, cells were exposed to no DSS (control), or DSS (4%) in the upper compartment of the Transwell. AMP peptide 77-97 (8 μg/ml) was added to the upper and lower compartments of the Transwell 1 day prior to the addition of DSS at time 0. TER of DSS-injured cultures treated with vehicle decreased by ˜70% at 45 min, whereas peptide-treated cultures declined ˜10% at that time. […] Values are means for ≧6 cultures.
Confluent C2 cell monolayers were prepared on Transwells until a stable TER was established. Medium was replaced with fresh medium containing FBS (0.1%) alone (control), or with either rhAMP-18 (100 nanomolar) or peptide 77-97 (3.7 micromolar). After 18 hr, monochloramine (0.3 mM) was added to both compartments of the Transwell, and cultures received either vehicle (control), vehicle plus oxidant, rhAMP-18 and oxidant, or peptide 77-97 and oxidant, after which TER was measured.
To determine whether AMP peptide could speed recovery of TER after DSS-induced colonic cell injury, a highly sought-after functional characteristic of an agent designed to treat IBD, C2 cell monolayers were exposed to DSS (5%) for 10 min which reduced TER to 33±6% of the control value (FIG. 29, left panel). DSS was removed by aspirating the medium and replacing it with fresh medium. AMP peptide 77-97 (8 μg/ml) or vehicle was added to the culture medium, and TER was measured 18 hr later. In the presence of the vehicle, TER increased from 33% to 66±7% of the control value, whereas cells exposed to AMP peptide reached a value 112±4% of control.
To determine if the cytoprotective effect of AMP peptide is mediated at the level of the actin cytoskeleton, C2 cell monolayers were exposed to cytochalasin D, an agent known to disrupt actin filaments and compromise barrier function (Madara et al., 1986).
To determine if AMP peptide could play a cytoprotective role in GDS, a study was carried out in C2 cell monolayers that were exposed to the PA-I lectin. […] Next the effect of AMP peptide was studied in the mouse model of P. aeruginosa-induced-GDS (Laughlin et al., 2000) using female Balb/c mice subjected to 30% hepatectomy, injection of a solution of living P. aeruginosa into the cecum, and food deprivation postoperatively. All 8 of the mice survived surgery.

[11] = tested on: stomach and intestinal epithelial cells; experiment: Concentrations at which gastric peptide mediators exert their effects in culture; format: cell-based

Row | Molecule | growth of SK-GT5 cells [1] | proliferation of HAE cells (in words) [2] | growth of NCI N-87 cells [3] | migration from the wound edge compared with vehicle [4] | growth stimulation of AGS cells (in words) [5] | loss of TER after oxidant exposure [6] | accumulation of occludin and ZO-1 (specificity) ([7]; peptides 8 μg/ml, EGF 50 ng/ml) | increase in cell number ([8]; 3 days, peptide 58-99 8 μg/ml, EGF 50 ng/ml, vehicle 290%) | growth stimulation of IEC-6 cells (in words) [9] | decline in TER after monochloramine [10] | immunoreactive ZO-1 and occludin versus vehicle-treated cells ([7]; 100 nanomolar, laser densitometry) | concentrations at which physiological effects can occur [11] | concentration of maximal mitogenic effect ([8]; FIG. 18) | growth stimulation of IEC-18 cells (in words) ([8]; added alone, peptides up to 8 μg/ml) | EC50 ([8]; confluent IEC-18 cultures, FIG. 13) | EC50 ([8]; recently purified rhAMP-18, FIG. 18)
1 | EGF: polypeptide mitogen used for comparison at 50 ng/ml [reference compound] | stimulated | stimulated proliferation | stimulated | stimulated cell movement | stimulated growth; also recorded: mitogenic | 35-40% | not replicated | 402% | stimulated | – | – | – | – | – | – | –
2 | B1 | – | – | – | – | – | – | – | – | – | ~10% | about two-fold | < 50 nM | 5 nM | stimulates cell proliferation to the same maximal extent | ~0.03 µM | ~0.005 µM
